Results as given in article PMC7070167, “Cell‐permeable high‐affinity tracers for Gq proteins provide structural insights, reveal distinct binding kinetics and identify small molecule inhibitors” (British Journal of Pharmacology, 2020).
Each block holds one compound with its values, some of them ahead of it.

Columns and labels:
Gq proteins = target: T1, Gq proteins (Homo sapiens, UniProt P50148); test: Competition binding at human platelet membrane preparations; conditions: for inhibition or modulation of [^3H]PSB‐15900 binding by G protein inhibitors: concentrations up to 100 μM, preincubation for 3 hr
T1 construct: Native cell membrane preparations from rat brain cortex and human blood platelets; host or cells: human platelets (intact suspension or membrane preparation)
T1 sequence (P50148 1-359): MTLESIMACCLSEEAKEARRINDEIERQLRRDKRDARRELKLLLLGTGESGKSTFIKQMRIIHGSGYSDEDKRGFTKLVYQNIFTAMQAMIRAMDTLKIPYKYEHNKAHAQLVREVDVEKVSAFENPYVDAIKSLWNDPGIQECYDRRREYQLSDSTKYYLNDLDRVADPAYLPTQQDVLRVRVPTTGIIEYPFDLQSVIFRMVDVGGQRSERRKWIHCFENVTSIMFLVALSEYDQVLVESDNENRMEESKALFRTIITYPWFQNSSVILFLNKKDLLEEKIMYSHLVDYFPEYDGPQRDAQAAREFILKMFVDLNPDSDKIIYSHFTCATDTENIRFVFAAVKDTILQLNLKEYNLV
Protocol: Apheresis‐purified human thrombocyte‐plasma concentrates were centrifuged (1,000 g at 4°C for 10 min), and the supernatant was decanted and centrifuged again (at 48,400 g, 4°C, for 60 min). The supernatant was kept and used as platelet‐poor plasma for control experiments; the formed pellet was resuspended in buffer 1 (50‐mM Tris–HCl, 5‐mM EDTA, and 150‐mM NaCl) and centrifuged at 48,400 g, 4°C for 60 min. The supernatant was discarded again and the pellet was resuspended in buffer 2 (5‐mM Tris–HCl and 5‐mM EDTA). The cell suspension was homogenized using an Ultra‐Turrax® (IKA Laborechnik, Staufen, Germany) for 1 min at a speed level of 4, subsequently transferred into cryovials, and stored at −80°C before use (the preparation is stable for several months). For radioligand binding assays, 50 μg of protein per vial was used, determined by the method of Bradford (Bio‐Rad Protein Assay).
The experiments were performed in 50‐mM Tris–HCl buffer, pH 7.4. The final assay volume of 200 μl contained 5 μl of test compound in DMSO, 50 μl of [^3H]PSB‐15900 or [^3H]PSB‐16254, respectively, in buffer, 5 nM of final concentration, and 100 μl of human platelet membrane preparation (50 μg of protein) or intact human platelets (7.5 × 10^6 cells/vial). Non‐specific binding was determined in the presence of 5‐μM FR. The incubation was started by the addition of membrane preparation and was performed at 37°C for 1 hr with gentle shaking. It was terminated by rapid vacuum filtration through GF/C glass‐fibre filters using a Brandel 24‐well harvester. The filters were rinsed three times with approximately 3 ml each of ice‐cold Tris–HCl buffer, 50 mM, pH 7.4 containing 0.1% Tween 20 and 0.1% BSA, to separate bound from free radioligand. The filters were punched out and transferred to scintillation vials. Luma Safe® scintillation cocktail (2.5 ml) was added, and after 6 hr of incubation, the samples were counted for 1 min each, using a liquid scintillation counter (counting efficiency 53%). Experiments in the presence of GTP were additionally performed after preincubation of the membrane preparation with GTP for 1 hr. pIC50 and pKi values were calculated using equations for one‐site competition as implemented in GraphPad Prism 6.01 (GraphPad Inc., La Jolla, CA, USA).

[1] = tested on: Gq signalling via endogenously expressed M3 receptor; test: Calcium mobilization assay, carbachol-induced (M3 receptor) in 1321N1 astrocytoma cells; format: cell-based, human
Protocol: (§1) The functional activity of YM, FR, and Ebselen as Gq protein inhibitors was determined by assessing their ability to antagonize ADP‐induced calcium mobilization in 1321N1 astrocytoma cells stably transfected with the human P2Y1 receptor, which is a Gq‐coupled receptor. In addition, the compounds' inhibitory effects on Carbachol‐induced calcium mobilization were studied in the same cell line, which endogenously express the Gq‐coupled muscarinic M3 ACh receptor. The assays were performed according to a previously described procedure (Rafehi et al., 2017) using a NOVOstar microplate reader (BMG Labtech, Offenburg, Germany).

[2] = tested on: Gq signalling via recombinantly expressed human P2Y1 receptor; test: Calcium mobilization assay, ADP-induced (P2Y1 receptor) in 1321N1 astrocytoma cells; format: cell-based
Protocol: as §1

[3] = tested on: Gq signalling (IP1 production) via Dq; test: IP1 assay in brown preadipocytes expressing Gq-coupled designer GPCR (Dq), CNO; format: cell-based, mouse; conditions: Ebselen 50 μM
Protocol: (§2) Intracellular concentrations of the second messenger IP1 in brown preadipocytes were quantified using the HTRF‐IP1 kit (Cisbio Bioassays) following the manufacturer's instructions. […] For ET‐1 experiments, non‐transduced preadipocytes were used. Cells were cultivated for 48 hr in GM (37°C, 5% CO2). For the assay, cells were trypsinized, and cell pellet was washed with PBS. Cell pellet was then resuspended in stimulation buffer containing 50‐mM LiCl and transferred to a 384‐well microtitre plate at a density of 100,000 cells per well in 7 μl of stimulation buffer. After 10 min of incubation, 3.5 μl of stimulation buffer containing inhibitors (50 μM of Ebselen, 1 μM of FR) were added for 1 hr followed by addition of 3.5 μl of stimulation buffer containing agonists (ET‐1, 10 nM; CNO, 10 μM) for 30 min; 3 μl of IP1‐d2 conjugate followed by 3 μl of europium cryptate‐labelled anti‐IP1 antibody dissolved in lysis buffer were added to the cells. After a further dark incubation of 1 hr at room temperature, time‐resolved fluorescence was measured at 620 and 665 nm with the EnSpire (Perkin Elmer) multimode plate reader.

[4] = tested on: Gq signalling (IP1 production) induced by ET‐1; test: IP1 assay in brown preadipocytes, ET-1; format: cell-based, mouse; conditions: Ebselen 50 μM pretreatment, ET‐1 10 nM
Protocol: as §2

[5] = tested on: primary murine brown adipocytes; test: Differentiation of primary murine brown adipocytes (Oil Red O, UCP-1, PPARγ); format: cell-based, mouse; conditions: Ebselen 50 μM, 9 days
Protocol: Ten‐ to 12‐week‐old pregnant wild‐type C57Bl6/J mice were purchased from Charles River and housed in pathogen‐free environment under a 12‐hr light/12‐hr dark cycle having free access to standard rodent diet and water. Brown adipose tissue (BAT)‐derived mesenchymal stem cells were isolated from interscapular BAT of newborn wild‐type mice and further cultured as previously described (Klepac et al., 2016). Specifically, 170,000 cells per well were seeded in growth medium (GM; DMEM supplemented with 10% FBS and 1% penicillin–streptomycin mixture from Sigma‐Aldrich) in a six‐well plate (Day −4); 48 hr later (Day −2), GM was replaced by differentiation medium (DM), which is GM supplemented with 20‐nM insulin and 1‐nM triiodothyronine. At Day 0, cells were treated for 48 hr with BAT induction medium (DM supplemented with 0.5‐mM isobutylmethylxanthine and 1‐μM dexamethasone). For the next 5 days, cells were treated with DM that was replenished every second day. The indicated treatments were added from Day −2 to Day +7 for 9 days to the media, endothelin‐1 (ET‐1; Tocris, 10 nM), or Ebselen (50 μM). Ebselen was added 3 hr prior to ET‐1 treatment. On Day +7, differentiation of cells into mature adipocytes was analysed using Oil Red O staining of lipid droplets. Mature brown adipocytes were washed with PBS and then fixed in 4% paraformaldehyde. […]

SMILES: N[C@@H](CSSC[C@H](N)C(=O)N1CCn2cc(-c3ccccc3)nc2[C@@H]1CC1CCCCC1)C(=O)N1CCn2cc(-c3ccccc3)nc2[C@@H]1CC1CCCCC1 [BIM‐46187]
inhibition or modulation of [^3H]PSB‐15900 binding by G protein inhibitors (Gq proteins): did not show any inhibition or modulation

Ki (Gq proteins; versus [^3H]PSB‐15900 (5 nM), human platelet membranes, 37°C, read-out: pKi (converted)): 9.33 µM
IC50 ([1]; Homo sapiens, versus Carbachol (EC80), M3 receptor, read-out: pIC50, inhibition of calcium mobilization (converted)): 4.37 µM
IC50 ([2]; Homo sapiens, versus ADP (EC80), P2Y1 receptor, 1321N1 astrocytoma cells, read-out: pIC50, inhibition of calcium mobilization (converted)): 2.34 µM
SMILES: O=c1c2ccccc2[se]n1-c1ccccc1 [Ebselen]
extent of block of carbachol‐induced calcium mobilization [1]: completely blocked
extent of block of ADP‐induced calcium mobilization ([2]; recombinant 1321N1 astrocytoma cells): completely blocked
effect on CNO‐induced increase in IP1 levels ([3]; CNO 10 μM, Gq‐DREADD expressing preadipocytes): significantly reduced
effect on basal IP1 levels ([3]; absence of agonist (Ctrl), acute treatment): did not affect
effect on ET‐1‐induced IP1 production [4]: attenuated
effect on differentiation of brown adipocytes [5]: enhanced
effect on ET‐1‐induced inhibition of brown adipogenesis ([5]; ET‐1 10 nM): rescued

SMILES: N[C@@H](CS)C(=O)N1CCn2cc(-c3ccccc3)nc2[C@@H]1CC1CCCCC1 [BIM‐46174]
inhibition or modulation of [^3H]PSB‐15900 binding by G protein inhibitors (Gq proteins): did not show any inhibition or modulation

modulation of [^3H]PSB‐15900 binding by nucleotides (Gq proteins; 100 μM and 1 mM, human platelet membranes, 5 nM radioligand): not allosterically modulated
SMILES: Nc1nc2c(ncn2[C@@H]2O[C@H](COP(=O)(O)OP(=O)(O)OP(=O)(O)O)[C@@H](O)[C@H]2O)c(=O)[nH]1 [GTP]
